Tests used:
Saccharomyces cerevisiae [1] = assay: DNA damaging activity against DNA repair-deficient RS 322YK (rad 52Y) yeast assessed as drug level required to produce 12 mm zone of inhibition; type: functional
Saccharomyces cerevisiae [2] = assay: DNA damaging activity against wild type (Rad+) yeast assessed as drug level required to produce 12 mm zone of inhibition; type: functional
Prolyl endopeptidase = Prolyl endopeptidase (Elizabethkingia meningoseptica, UniProt P27028); assay: Inhibition of Flavobacterium meningosepticum […]
Chain of Prolyl endopeptidase (P27028 21-705 limits assumed): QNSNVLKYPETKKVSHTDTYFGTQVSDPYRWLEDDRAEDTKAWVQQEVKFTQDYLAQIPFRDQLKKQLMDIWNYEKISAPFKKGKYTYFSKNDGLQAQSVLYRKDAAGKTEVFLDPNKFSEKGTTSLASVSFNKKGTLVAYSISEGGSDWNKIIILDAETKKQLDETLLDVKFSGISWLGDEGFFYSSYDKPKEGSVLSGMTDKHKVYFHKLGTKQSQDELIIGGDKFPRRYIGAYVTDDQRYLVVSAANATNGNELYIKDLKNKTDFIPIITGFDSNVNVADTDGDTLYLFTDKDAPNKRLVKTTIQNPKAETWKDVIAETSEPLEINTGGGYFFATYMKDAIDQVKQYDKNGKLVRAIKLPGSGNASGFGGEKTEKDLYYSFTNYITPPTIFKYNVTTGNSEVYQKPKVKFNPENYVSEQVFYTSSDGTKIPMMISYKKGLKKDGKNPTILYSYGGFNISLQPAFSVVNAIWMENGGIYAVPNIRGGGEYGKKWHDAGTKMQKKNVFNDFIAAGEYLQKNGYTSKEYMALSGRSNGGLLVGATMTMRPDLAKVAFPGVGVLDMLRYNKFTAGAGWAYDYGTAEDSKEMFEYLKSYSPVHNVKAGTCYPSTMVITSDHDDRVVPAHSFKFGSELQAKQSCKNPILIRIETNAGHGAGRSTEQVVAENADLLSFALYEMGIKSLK

CC(=O)OC[C@@]12[C@H](OC(C)=O)[C@H]3[C@@H](OC(C)=O)[C@@H](C)C[C@]3(OC(C)=O)C(=O)[C@@]3(C)OC(C)(C)[C@@H](C=C[C@H]1OC(=O)c1ccccc1)[C@H]23
IC12 (Saccharomyces cerevisiae [1]): 750 µg/mL | IC12 (Saccharomyces cerevisiae [2]): 1090 µg/mL

CC(=O)OC[C@@]12[C@H](OC(C)=O)[C@H]3[C@@H](OC(C)=O)[C@@H](C)C[C@]3(O)C(=O)[C@@]3(C)OC(C)(C)[C@@H](C=C[C@H]1OC(=O)c1ccccc1)[C@H]23
IC50 (Prolyl endopeptidase): 16.9 µM

CC[C@@]1(O)C(=O)OCc2c1cc1n(c2=O)Cc2cc3ccccc3nc2-1 [CAMPTOTHECIN]
IC12 (Saccharomyces cerevisiae [1]): 12 µg/mL | IC12 (Saccharomyces cerevisiae [2]): 75 µg/mL

— ChEMBL document CHEMBL1147218, “New bioactive diterpene polyesters from Euphorbia decipiens” (J Nat Prod, 2003)
